The text below walks through data of US10774080B2, “Pyrimidine compound as JAK kinase inhibitor” (THERAVANCE BIOPHARMA R&D IP, LLC, priority 2017, dated 2020).

For series [1], the system named is BEAS-2B human lung epithelial cells. The series is classed as cell-based. Conditions: 48 h. Here is the method:
Assay 3: Cytotoxicity Assay A CellTiter-Glo luminescent cell viability/cytotoxicity assay was carried out in BEAS-2B human lung epithelial cells (ATCC) under the normal growth condition. […] On day 1 of the assay, cells were seeded at a 500 cells/well density in white 384-well tissue culture plates (Corning) with 25 μL medium, and were allowed to adhere overnight in the incubator. On day 2 of the assay, 5 μL of medium containing dose-responses of test compounds was added, and incubated at 37° C. for 48 h. 30 μL of CellTiter-Glo detection solution (Promega) was subsequently added, mixed on an orbital shaker for 5 min, and incubated for additional 10 min before being read on the EnVision reader. Luminescence signals were recorded and percent DMSO control values were calculated. For dose-response analysis, percent DMSO control data were plotted vs. compound concentrations to derive dose-response curves by line connecting each data point. […] Results were expressed as the negative logarithm of the CC15 value, pCC15. […] The pCC15 for compound (I) was 5.36.

Series [2] is described as follows: Assay 5: rat pharmacokinetics. The class given is in vivo, male Sprague Dawley rats. The note with it: male, Sprague Dawley. As for the experimental part:
Assay 5: Rat Pharmacokinetics Assay The objective of this study was to assess the pharmacokinetics of compound (I) in plasma following single oral (PO, n=3) or intravenous (IV, n=2) administration to male Sprague Dawley rats. Three male Sprague Dawley rats were administered a single IV dose of compound (I) (1.0 mg/kg in 5% DMSO+20 mM Citrate buffer pH4) via a jugular vein catheter or a single PO dose of 5 mg/kg via oral gavage (5.0 mg/kg in 1% HPMC with 0.1% Tween80). At 0.25, 0.5, 1, 2, 4, 6, and 24 hours after dose administration blood samples were drawn via jugular vein catheter into EDTA tubes and maintained chilled on ice prior to centrifugation (12,000 rpm, 4 min, 4° C.). Aliquots of plasma were transferred to cluster tubes and stored frozen (−80° C.) prior to bioanalysis. Plasma samples were vortexed prior to transferring a 50 μL aliquot of sample to a 96-well plate and extracted with 200 μL acetonitrile containing an internal standard. Following extraction, samples were centrifuged for 10 min at 3700 RPM (2809×g). The supernatant was transferred to a new 96-well plate and then diluted in 0.2% formic acid in water (3-fold dilution). For all samples, 10 μL was injected onto a Waters Xbridge (C18 30×2.1 mm) column with a flow rate of 0.80 mL/min. Mobile phase A consisted of 0.2% formic acid in water and mobile phase B 0.2% formic acid in acetonitrile. Plasma levels of compound (I) were determined by LC-MS-MS analysis. Standard PK parameters were determined using Phoenix WinNonlin, (Certara Inc.).

In a further series the test system is CCL2 gene expression. Put plainly: Assay 7: ex vivo JAK PD assay, freshly excised human skin, CCL2. The note with it: 0.5% ointment, about 40 hours continuous exposure, Th1-skewed stimulation (TNFα, IFNγ, IL-12), vs vehicle. Here is the method:
Assay 7: Ex Vivo JAK Pharmacodynamic (PD) Assay Using Human Freshly Excised Skin An ex vivo JAK pharmacodynamics (PD) assay was conducted using human isolated skin tissue. The PD assay used fresh human skin (dermatome of 750 μm thickness) that was mounted in static Franz cells with a surface area of ˜0.5 cm^2. The receiver chambers of the Franz cells were filled with warm (37° C.) cornification media and placed in an incubator at 37° C. The skin was topically dosed with 10 μL ([…]) of compound (I) or vehicle and was left undisturbed overnight (˜24 hours). The next day, with no re-application of the test compound or vehicle, the media was replaced with a Th1-skewed stimulation cocktail consisting of TNFα, IFNγ and IL-12. The skin was left undisturbed for an additional 16 hours, and then harvested and processed for RNA extraction and qPCR of biomarkers: CXCL10, CCL2. GAPDH was used as an internal standard. The compound (I) was formulated in an ointment formulation at 0.5% strength. A total of three skin donors (tested in quadruplicates/sample/treatment) were used. Treatment effect was calculated as the percent increase or decrease in stimulation compared to the vehicle group. [table]

In series [3] the test system is IL-22 suppressed Filaggrin expression. Put plainly: Assay 15: recovery of IL-22 suppressed Filaggrin in normal human epidermal keratinocytes. The class given is cell-based. The note with it: IL-22 50 ng/mL, 4 days. As for the experimental part: Assay 15: Recovery of IL-22 Suppressed Filaggrin in Normal Human Epidermal Keratinocytes
IL-22 is known to inhibit the expression of terminal differentiation genes, such as Filaggrin. The recovery level of test compound for interleukin-22 (IL-22) suppressed Filaggrin expression was measured in the normal human epidermal keratinocytes (ATCC) using real-time PCR.
Primary epidermal keratinocytes were cultured in a 37° C., 5% CO2 humidified incubator in dermal cell basal medium (ATCC) supplemented with keratinocyte growth kit (ATCC) and 1× Pen/Strep (Life Technologies). Cells were seeded at 5,000 cells/well in BioCoat 96-well plates (Corning) with 100 μl and incubated at 37° C., 5% CO2 for 3 to 4 days till 100% confluency. Then, the medium was removed and replaced with 150 μL of medium containing does-response of test compounds. Compounds were serially diluted in DMSO and then diluted another 1000-fold in media to bring the final DMSO concentration to 0.1%. On day 1 of the assay, cells were incubated with test compounds at 37° C. for 1 h, and followed by the addition of followed by the addition of IL-22 (R&D Systems; final concentration 50 ng/mL) in pre-warmed media (50 μL) for 4 days. […] Fluorescence signals were captured after each cycle. Comparative CT method was used to quantify gene expression with cells without IL-22 and test compounds as baseline control.

Bounds are passed on as bounds.

As usually defined, the clearance is a measure of how efficiently the substance is removed, as volume per time. Low readings indicate inefficient removal, high ones efficient removal. One may read the bioavailability as dose-corrected exposure relative to a reference, in per cent. A high value points to much systemic uptake. By AUC(0-t) is commonly meant exposure summed from dosing to a finite time, without extrapolation to infinity. The Cmax is the peak of the concentration-time curve. Compound `CCS(=O)(=O)N1[C@@H]2CCC[C@H]1C[C@H](N(C)c1nc(CO)c(F)c(Nc3cc(C)[nH]n3)n1)C2` [Compound (I), (2-(((1R,3s,5S)-9-(ethylsulfonyl)-9-azabicyclo[3.3.1]nonan-3-yl)(methyl)amino)-5-fluoro-6-((5-methyl-1H-pyrazol-3-yl)amino)pyrimidin-4-yl)methanol] yielded a pCC15 in series [1] of 5.36. The clearance in series [2] (plasma, rat, IV (1 mg/kg)) was 59 mL/min/kg. Besides, the Vd in series [2] (plasma, rat, IV (1 mg/kg), read-out: Vdss) worked out at 1.1 L/kg. Also, the bioavailability in series [2] (plasma, rat, PO (5 mg/kg)) was 7.7%. Further, the area under the curve AUC(0-t) in series [2] (rat plasma, IV (1 mg/kg)) came out at 291 ng·h/mL; in series [2] (rat plasma, PO (5 mg/kg)), 112 ng·h/mL. The Cmax in series [2] (rat plasma, IV (1 mg/kg)) worked out at 907 ng/mL; in series [2] (rat plasma, PO (5 mg/kg)), 77 ng/mL. In series [2] (rat plasma, IV (1 mg/kg), read-out: T½ (converted)), the half-life is 1.34 h. The “PD-% Inhibition (mean ± SD) CCL2” value with CCL2 gene expression was determined as 61.3%. The “concentration at which recovery of IL-22 suppressed Filaggrin expression was observed” value in series [3] is below 1 µM.
